The text below walks through data of ChEMBL document CHEMBL4483862, “Open-source discovery of chemical leads for next-generation chemoprotective antimalarials” (2018).

This assay has as its system Plasmodium berghei. Description: Luciferase/luciferin-expressing antifolate-resistant parasites were used to infect a culture of HepG2 cells that were pre-incubated with compounds. Infected hepatocytes emit light due to the luciferase reaction. Assay results are presented as the percent inhibition of light emission compared to control. […]. The format is functional. The conditions noted are these: sporozoite; for IC90: read-out: LUCIFERASE INFECTION ASSAY - IC90.

A word on the IC50: it is the point on the concentration scale where inhibition reaches its midpoint. What is called IC90 is the concentration at which the effect reaches the 90% level. In the case of `CCOC(=O)c1c(NC(=O)C(C)N2CCN(C(=O)c3ccco3)CC2)sc2c1CCCC2` (configuration not stated), the IC90 is above 10 µM. In addition, the concentration for half-maximal inhibition (IC50) (PBLUC_HILL_SLOPE 16.5, PBLUC_R_SQUARED 0.188, read-out: LUCIFERASE INFECTION ASSAY - IC50) was found to be 9.7 µM.
Regarding `O=C(Nc1csc([N+](=O)[O-])c1)Nc1ccccc1Cl`, the IC90 was above 11.1 µM. The IC50 (PBLUC_HILL_SLOPE 16.6, PBLUC_R_SQUARED 0.0194, read-out: LUCIFERASE INFECTION ASSAY - IC50) came to 11 µM.
On to `COc1ccc(-c2cc(C(=O)NNC3=NCCC3)c3c(C)nn(-c4ccccc4)c3n2)cc1`, for which the IC90 was above 10 µM. Moreover, the IC50 (PBLUC_HILL_SLOPE 16.7, PBLUC_R_SQUARED 0.16, read-out: LUCIFERASE INFECTION ASSAY - IC50) came out at 9.26 µM.
As to `CCOc1cccc(/C=C/c2ccc3cccc(O)c3n2)c1O`, the IC90 amounted to 10.6 µM. In addition, the half-maximal inhibitory concentration (IC50) (PBLUC_HILL_SLOPE 16.2, PBLUC_R_SQUARED 0.451, read-out: LUCIFERASE INFECTION ASSAY - IC50) came out at 9.23 µM.
Consider `OC(COc1ccc(Cl)cc1)CN1CCC(Cc2ccccc2)CC1` (configuration not stated), for which the IC90 stood at 8.19 µM. The IC50 (PBLUC_HILL_SLOPE 16.8, 4.66, PBLUC_R_SQUARED 0.391, 0.0786, read-out: LUCIFERASE INFECTION ASSAY - IC50) came out at 6.33 µM.
For the molecule `OCc1ccc(-c2cnc3cnc(-c4cccs4)cn23)cc1`, the IC90 turned out to be 10.6 µM. For the same molecule, the IC50 (PBLUC_HILL_SLOPE 16.2, PBLUC_R_SQUARED 0.35, read-out: LUCIFERASE INFECTION ASSAY - IC50) came to 9.27 µM.
Take `N#Cc1c(N2CCCC2)nn(C(=O)Nc2ccc(Cl)c(Cl)c2)c1N`: the IC90 was determined as 3.89 µM. Further, the IC50 (PBLUC_HILL_SLOPE 16.1, PBLUC_R_SQUARED 0.491, read-out: LUCIFERASE INFECTION ASSAY - IC50) was 3.39 µM.
As to `O=C1c2ccccc2C(=Cc2ccsc2)c2ccccc21`, the IC90 was above 10 µM. Also, for the setting “PBLUC_HILL_SLOPE 16.4, 0.310, PBLUC_R_SQUARED 0.161, 0.532, read-out: LUCIFERASE INFECTION ASSAY - IC50”, the IC50 came out at 4.9 µM.
Regarding `N#Cc1ccc(NC(=O)NNc2ccc(Cl)cc2Cl)cc1`, the IC90 was above 10 µM. Besides, the IC50 (PBLUC_HILL_SLOPE 16.6, PBLUC_R_SQUARED 0.338, read-out: LUCIFERASE INFECTION ASSAY - IC50) was determined as 9.59 µM.
On to `CC1(C)CC(Nc2ncnc3sc(-c4ccccc4)cc23)CC(C)(C)N1`, for which the IC90 was above 10 µM. For the same molecule, under “PBLUC_HILL_SLOPE 16.4, PBLUC_R_SQUARED 0.0474, read-out: LUCIFERASE INFECTION ASSAY - IC50”, the IC50 is 8.84 µM.
Turning to `CS(=O)(=O)Nc1cccc(-c2cn3c(-c4ccc(CO)cc4)cnc3cn2)c1`, the IC90 is 8.14 µM. Also, the IC50 (PBLUC_HILL_SLOPE 16.4, PBLUC_R_SQUARED 0.351, read-out: LUCIFERASE INFECTION ASSAY - IC50) was determined as 7.12 µM.
`Cc1ccc(Oc2ccc(NC(=O)CCc3cccnc3)cc2)cc1`: the IC90 was 9.55 µM. The IC50 (PBLUC_HILL_SLOPE 16.6, PBLUC_R_SQUARED 0.382, read-out: LUCIFERASE INFECTION ASSAY - IC50) worked out at 8.37 µM.
In the case of `CN(Cc1ccc(C(=O)NC2CC2)cc1)S(=O)(=O)c1ccc(Br)s1`, the IC90 was determined as 9.55 µM. The IC50 (PBLUC_HILL_SLOPE 16.6, PBLUC_R_SQUARED 0.228, read-out: LUCIFERASE INFECTION ASSAY - IC50) worked out at 8.37 µM.
`COc1cc2c(cc1NC(=O)c1cnn(C(C)(C)C)c1C)oc1ccccc12`: the IC90 came to 3.66 µM. Also, where the note is “PBLUC_HILL_SLOPE 16.6, PBLUC_R_SQUARED 0.596, read-out: LUCIFERASE INFECTION ASSAY - IC50”, the IC50 is 3.21 µM.
Turning to `COc1ccc(-c2cnc3sc(NCCc4ccc(S(N)(=O)=O)cc4)nn23)cc1OC`, the IC90 amounted to 6.81 µM. For the same molecule, under “PBLUC_HILL_SLOPE 16.2, PBLUC_R_SQUARED 0.321, read-out: LUCIFERASE INFECTION ASSAY - IC50”, the IC50 is 5.94 µM.
Take `CC(C1CC2CCC1C2)N1C(=O)C(=O)N(CC(=O)Nc2cccc(F)c2)C1=O` (configuration not stated): the IC90 stood at 3.86 µM. Besides, the IC50 (PBLUC_HILL_SLOPE 16.7, 2.98, PBLUC_R_SQUARED 0.617, 0.740, read-out: LUCIFERASE INFECTION ASSAY - IC50) turned out to be 4.13 µM.
Turning to `COc1ccc(-c2ccc3ncc(-c4ccoc4)n3n2)cc1OC`, the IC90 was above 10 µM. The IC50 (PBLUC_HILL_SLOPE 16.2, PBLUC_R_SQUARED 0.0483, read-out: LUCIFERASE INFECTION ASSAY - IC50) was above 10 µM.
For `CC(c1nc(N)nc(N(C)C)n1)N1CCN(C(c2ccc(F)cc2)c2ccc(F)cc2)CC1` (configuration not stated), the IC90 worked out at 3.79 µM. For the same molecule, the IC50 (PBLUC_HILL_SLOPE 16.2, PBLUC_R_SQUARED 0.638, read-out: LUCIFERASE INFECTION ASSAY - IC50) came out at 3.31 µM.
With `Cc1onc(-c2ccc(Cl)cc2Cl)c1-c1csc(Nc2c(Cl)cccc2Cl)n1`, the IC90 is above 7 µM. The IC50 (PBLUC_HILL_SLOPE 16.2, PBLUC_R_SQUARED 0.0753, read-out: LUCIFERASE INFECTION ASSAY - IC50) amounted to 6.45 µM.
`CCOc1ccc(-c2nc(C(=O)Nc3ncccc3O)cs2)cc1`: the IC90 amounted to 3.84 µM. In addition, the IC50 (PBLUC_HILL_SLOPE 16.6, PBLUC_R_SQUARED 0.386, read-out: LUCIFERASE INFECTION ASSAY - IC50) is 3.36 µM.
`Cc1noc(C)c1C(=O)NNC(=O)c1ccc(Cl)cc1`: the IC90 is above 11.2 µM. Further, the IC50 (PBLUC_HILL_SLOPE 16.2, PBLUC_R_SQUARED 0.359, read-out: LUCIFERASE INFECTION ASSAY - IC50) amounted to 11 µM.
In the case of `O=S(=O)(c1c(Cl)cc(Br)cc1Cl)N1CCN(C(=S)NC2CC3CCC2C3)CC1` (configuration not stated), the IC90 is above 10 µM. For the same molecule, the IC50 (PBLUC_HILL_SLOPE 16.2, PBLUC_R_SQUARED 0.114, read-out: LUCIFERASE INFECTION ASSAY - IC50) worked out at 8.93 µM.
With `CCOc1ccc(NCC(=O)c2ccc(-c3ccccc3)cc2)cc1`, the IC90 is above 10 µM. Further, the IC50 (PBLUC_HILL_SLOPE 16.8, 2.19, PBLUC_R_SQUARED 0.173, 0.582, read-out: LUCIFERASE INFECTION ASSAY - IC50) amounted to 8.7 µM.
With `CC(C)(C)NC(=O)CNC(=O)c1cc(-c2ccccc2)nc2c1cnn2Cc1ccccc1`, the IC90 is above 10 µM. Under “PBLUC_HILL_SLOPE 16.4, PBLUC_R_SQUARED 0.327, read-out: LUCIFERASE INFECTION ASSAY - IC50”, the IC50 worked out at 9.02 µM.
Take `CCOC(=O)c1sc(N)c(C#N)c1CSc1nnc(Cc2cccc3ccccc23)n1C1CCCCC1`: the IC90 was 9.87 µM. The IC50 (PBLUC_HILL_SLOPE 16.7, PBLUC_R_SQUARED 0.489, read-out: LUCIFERASE INFECTION ASSAY - IC50) worked out at 8.65 µM.
As to `O=C(NCCN1CCc2ccccc2C1)c1cc2ccccc2cc1O`, the 90% effect concentration (IC90) amounted to 3.77 µM. The IC50 (PBLUC_HILL_SLOPE 16.8, PBLUC_R_SQUARED 0.317, read-out: LUCIFERASE INFECTION ASSAY - IC50) came out at 3.31 µM.
Turning to `CC1CCC(N(C)C(=O)C2CCN(S(=O)(=O)c3ccc4c(c3)CCC4)CC2)CC1` (configuration not stated), the IC90 is above 10 µM. For the same molecule, for the setting “PBLUC_HILL_SLOPE 16.6, PBLUC_R_SQUARED 0.0251, read-out: LUCIFERASE INFECTION ASSAY - IC50”, the IC50 stood at 9.82 µM.
On to `CNc1snc(C)c1C(=O)Nc1ccc(OC)c(Cc2ccccc2)c1`, for which the IC90 came to 1.1 µM. Moreover, for the setting “PBLUC_HILL_SLOPE 16.3, PBLUC_R_SQUARED 0.619, read-out: LUCIFERASE INFECTION ASSAY - IC50”, the IC50 was 0.961 µM.
`c1ccc(-c2nc(NCCCN3CCOCC3)c3cc(-c4ccccc4)sc3n2)cc1`: the IC90 was above 10 µM. Further, the IC50 (PBLUC_HILL_SLOPE 16.1, PBLUC_R_SQUARED 0.337, read-out: LUCIFERASE INFECTION ASSAY - IC50) was 9.75 µM.
Take `OC(COc1ccc(Cl)c(Cl)c1)CN1CCC(Nc2nccc(C(F)(F)F)n2)CC1` (configuration not stated): the IC90 is above 7.09 µM. Besides, the IC50 (PBLUC_HILL_SLOPE 16.2, PBLUC_R_SQUARED 0.0623, read-out: LUCIFERASE INFECTION ASSAY - IC50) amounted to 6.96 µM.
For the molecule `CCCn1c(NC(=O)CSc2ccc3c4c(cccc24)C(=O)c2ccccc2-3)nc2ccccc21`, the IC90 is 3.87 µM. The IC50 (PBLUC_HILL_SLOPE 16.8, PBLUC_R_SQUARED 0.332, read-out: LUCIFERASE INFECTION ASSAY - IC50) worked out at 3.39 µM.
On to `CCc1ccc(-n2c(SC3CCCCC3NS(=O)(=O)c3ccccc3)nc3ccccc3c2=O)cc1` (configuration not stated), for which the IC90 is 4.14 µM. In addition, the IC50 (PBLUC_HILL_SLOPE 16.5, PBLUC_R_SQUARED 0.215, read-out: LUCIFERASE INFECTION ASSAY - IC50) is 3.63 µM.
Take `COc1ccccc1/C=C(/C(=O)OCc1cn2ccccc2c1C#N)c1ccccc1`: the IC90 is above 10 µM. The IC50 (PBLUC_HILL_SLOPE 16.4, PBLUC_R_SQUARED 0.216, read-out: LUCIFERASE INFECTION ASSAY - IC50) was determined as 9.92 µM.
With `COC(=O)c1c(NC(C)=O)c2cc(NCC3CC=CCC3)cnc2n1CCc1c[nH]c2ccccc12` (configuration not stated), the IC90 is above 6.8 µM. The IC50 (PBLUC_HILL_SLOPE 16.1, PBLUC_R_SQUARED 0.211, read-out: LUCIFERASE INFECTION ASSAY - IC50) was found to be 6.66 µM.
As to `Cc1cccc(-c2cn3c(-c4cccc(C(=O)N5CCN(C)CC5)c4)cnc3cn2)c1C`, the IC90 turned out to be 3 µM. For the same molecule, under “PBLUC_HILL_SLOPE 16.5, PBLUC_R_SQUARED 0.755, read-out: LUCIFERASE INFECTION ASSAY - IC50”, the IC50 was 2.63 µM.
Take `Cc1c(C(=O)Nc2ccc(Oc3ccccc3)cc2)[nH]c2c1C(=O)CCC2`: the IC90 was above 10 µM. For the same molecule, the IC50 (PBLUC_HILL_SLOPE 16.6, PBLUC_R_SQUARED 0.701, read-out: LUCIFERASE INFECTION ASSAY - IC50) was found to be 9.52 µM.
